Source: patent US20210379010A1, “COMPOSITIONS COMPRISING CANNABINOIDS FOR USE IN THE TREATMENT OF BIOFILM AND CONDITIONS ASSOCIATED WITH MICROBIAL, FUNGAL, BACTERIAL INFECTIONS” (Yissum Research Development Company of The Hebrew …, priority 2018, published 2021)

Columns and labels:
[1] = tested on: fluconazole resistant C. albicans strain DSY551 biofilm; conditions: Table 2
[2] = tested on: fluconazole resistant C. albicans strain DSY735 biofilm; conditions: Table 2
[3] = MBIC of fluconazole in combination with ARAS

## OC(Cn1cncn1)(Cn1cncn1)c1ccc(F)cc1F [FLU, fluconazole, reference compound]
[1]; [3]
  FBIC FLU: 2 µg/mL
[1]; fluconazole alone
  MBIC FLU: >64 µg/mL
[2]; [3]
  FBIC FLU: 4 µg/mL
[2]; fluconazole alone
  MBIC FLU: >64 µg/mL
